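These data come from cells grown in 96-well plates and exposed to compound for 48 hours at five concentrations. At the GI50, growth is halved. TGI: concentration producing complete growth inhibition.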
Columns and labels:
Experiment in all cases: NCI tumour cell line growth inhibition, 48 h
[1] = test system: NCI-H23 lung
[2] = test system: SK-MEL-28 melanoma
[3] = test system: BT-549 breast
[4] = test system: T-47D breast
[5] = test system: SW-620 colon
[6] = test system: CAKI-1 renal
[7] = test system: HT29 colon
[8] = test system: NCI-H226 lung
[9] = test system: PC-3 prostate
[10] = test system: SK-MEL-2 melanoma
[11] = test system: TK-10 renal
[12] = test system: MDA-MB-231 breast
[13] = test system: HOP-92 NSCLC
[14] = test system: NCI-H460 lung
[15] = test system: COLO 205 colon
[16] = test system: HOP-62 NSCLC
[17] = test system: UACC-62 melanoma
[18] = test system: HCC-2998 colon
[19] = test system: SK-OV-3 ovarian
[20] = test system: SF-268 CNS
[21] = test system: IGROV1 ovarian
[22] = test system: HL-60(TB) leukemia
[23] = test system: MCF7 breast
[24] = test system: OVCAR-8 ovarian
[25] = test system: UACC-257 melanoma
[26] = test system: U251 CNS
[27] = test system: K-562 leukemia
[28] = test system: RPMI-8226 leukemia
[29] = test system: HCT-116 colon
[30] = test system: SF-539 CNS
[31] = test system: ACHN renal
[32] = test system: LOX IMVI melanoma
[33] = test system: NCI/ADR-RES ovarian
[34] = test system: 786-0 renal
[35] = test system: M14 melanoma
[36] = test system: KM12 colon
[37] = test system: SNB-75 CNS
[38] = test system: MDA-MB-435
[39] = test system: HS 578T breast
[40] = test system: HCT-15 colon
[41] = test system: UO-31 renal
[42] = test system: SK-MEL-5 melanoma
[43] = test system: RXF 393 renal
[44] = test system: OVCAR-4 ovarian
[45] = test system: SNB-19 CNS
[46] = test system: DU-145 prostate
[47] = test system: CCRF-CEM leukemia
[48] = test system: EKVX NSCLC
[49] = test system: SR leukemia
[50] = test system: MOLT-4 leukemia
[51] = test system: SF-295 CNS
[52] = test system: A498 renal
[53] = test system: NCI-H522 lung
[54] = test system: MALME-3M melanoma
[55] = test system: OVCAR-3 ovarian
[56] = test system: A549 NSCLC
[57] = test system: SN12C renal
[58] = test system: OVCAR-5 ovarian

O=C(Nc1ccccc1)c1cc2c(cc1Cl)SC(NNCCO)=NS2(=O)=O
TGI [1]: > 100 µM
TGI [2]: > 100 µM
TGI [3]: > 100 µM
TGI [4]: > 100 µM
TGI [5]: > 100 µM
TGI [6]: > 100 µM
TGI [7]: > 100 µM
TGI [8]: > 100 µM
TGI [9]: > 100 µM
TGI [10]: > 100 µM
TGI [11]: > 100 µM
TGI [12]: > 100 µM
TGI [13]: > 100 µM
TGI [14]: > 100 µM
TGI [15]: > 100 µM
TGI [16]: > 100 µM
TGI [17]: > 100 µM
TGI [18]: > 100 µM
TGI [19]: > 100 µM
TGI [20]: > 100 µM
TGI [21]: > 100 µM
TGI [22]: > 100 µM
TGI [23]: > 100 µM
TGI [24]: > 100 µM
TGI [25]: > 100 µM
TGI [26]: > 100 µM
TGI [27]: > 100 µM
TGI [28]: > 100 µM
TGI [29]: > 100 µM
TGI [30]: > 100 µM
TGI [31]: > 100 µM
TGI [32]: > 100 µM
TGI [33]: > 100 µM
TGI [34]: > 100 µM
TGI [35]: > 100 µM
TGI [36]: > 100 µM
TGI [37]: > 100 µM
TGI [38]: > 100 µM
TGI [39]: > 100 µM
TGI [40]: > 100 µM
TGI [41]: > 100 µM
TGI [42]: > 100 µM
TGI [43]: > 100 µM
TGI [44]: > 100 µM
TGI [45]: > 100 µM
TGI [46]: > 100 µM
TGI [47]: > 100 µM
TGI [48]: > 100 µM
TGI [49]: > 100 µM
TGI [50]: > 100 µM
TGI [51]: > 100 µM
TGI [52]: > 100 µM

Cc1ccn2c(-c3csc(Nc4cccc(O)c4)n3)c(C)nc2c1
GI50 [1]: 1.01 µM
TGI [1]: 19.7 µM
GI50 [2]: 1.51 µM
TGI [2]: 36.3 µM
GI50 [3]: 0.781 µM
TGI [3]: 33.6 µM
GI50 [4]: 0.878 µM
TGI [4]: 10.8 µM
GI50 [5]: 0.337 µM
TGI [5]: 26.8 µM
GI50 [6]: 1.21 µM
TGI [6]: 21.2 µM
GI50 [7]: 4.13 µM
TGI [7]: 18 µM
GI50 [8]: 14.1 µM
TGI [8]: 57.4 µM
GI50 [9]: 0.609 µM
TGI [9]: 29.6 µM
GI50 [10]: 0.72 µM
TGI [10]: 20.4 µM
GI50 [53]: 0.32 µM
TGI [53]: 3.22 µM
GI50 [11]: 4.88 µM
TGI [11]: 24.9 µM
GI50 [12]: 0.751 µM
TGI [12]: 11.6 µM
GI50 [13]: 1.75 µM
TGI [13]: 22.7 µM
GI50 [14]: 0.423 µM
TGI [14]: 16.9 µM
GI50 [15]: 11.8 µM
TGI [15]: 26.3 µM
GI50 [16]: 0.638 µM
TGI [16]: 19.1 µM
GI50 [17]: 0.712 µM
TGI [17]: 19.2 µM
GI50 [18]: 2.81 µM
TGI [18]: 17.4 µM
GI50 [19]: 1.04 µM
TGI [19]: 11.8 µM
GI50 [20]: 0.785 µM
TGI [20]: 42.6 µM
GI50 [21]: 4.43 µM
TGI [21]: 29.1 µM
GI50 [22]: 0.343 µM
TGI [22]: 22.1 µM
GI50 [23]: 0.311 µM
TGI [23]: 27.3 µM
GI50 [54]: 0.444 µM
TGI [54]: 25 µM
GI50 [24]: 0.611 µM
TGI [24]: 44.9 µM
GI50 [25]: 3.48 µM
TGI [25]: 19.6 µM
GI50 [26]: 0.681 µM
TGI [26]: 10.3 µM
GI50 [27]: 0.196 µM
TGI [27]: > 38.2 µM
GI50 [28]: 0.422 µM
TGI [28]: 5.02 µM
GI50 [29]: 0.397 µM
TGI [29]: 15.1 µM
GI50 [30]: 0.498 µM
TGI [30]: 3.75 µM
GI50 [31]: 0.812 µM
TGI [31]: > 100 µM
GI50 [33]: 0.957 µM
TGI [33]: > 45.1 µM
GI50 [34]: 1.8 µM
TGI [34]: 8.81 µM
GI50 [35]: 0.359 µM
TGI [35]: 18 µM
GI50 [36]: 0.273 µM
TGI [36]: 16.4 µM
GI50 [55]: 0.32 µM
TGI [55]: 0.914 µM
GI50 [37]: 0.225 µM
TGI [37]: 1.65 µM
GI50 [56]: 0.896 µM
TGI [56]: 26.1 µM
GI50 [38]: 0.059 µM
TGI [38]: 0.281 µM
GI50 [39]: 1.17 µM
TGI [39]: 29.3 µM
GI50 [40]: 0.273 µM
TGI [40]: 24 µM
GI50 [41]: 0.977 µM
TGI [41]: 16.6 µM
GI50 [42]: 0.478 µM
TGI [42]: 11.1 µM
GI50 [43]: 1.27 µM
TGI [43]: 7.26 µM
GI50 [44]: 2.43 µM
TGI [44]: 53.2 µM
GI50 [45]: 4.66 µM
TGI [45]: 77.4 µM
GI50 [57]: 0.946 µM
TGI [57]: 27.8 µM
GI50 [46]: 0.787 µM
TGI [46]: 25.3 µM
GI50 [47]: 0.48 µM
TGI [47]: > 33 µM
GI50 [49]: 0.2 µM
GI50 [50]: 0.591 µM
TGI [50]: 27.9 µM
GI50 [51]: 2.34 µM
TGI [51]: 11.9 µM
GI50 [58]: 9.29 µM
TGI [58]: > 81.2 µM
GI50 [52]: 0.926 µM
TGI [52]: 32.1 µM

Source: PubChem BioAssay (NCI)
